Assay results from patent US12077503B2, “Substituted cyclic amides and their use as herbicides” (FMC CORPORATION, priority 2015, dated 2024).

How the values were obtained:
Format in all cases: in vivo
[1] = test system: ryegrass, Italian (Italian ryegrass, Lolium multiflorum); test: Test A preemergence; conditions: Lolium multiflorum, pre-emergence, 240 h, Preemergence; for pest or weed control at 31 g/ha: 31 g ai/ha, 0 to 100 scale where 0 is no effect and 100 is complete control, read-out: Ryegrass, Italian plant response rating; for pest or weed control at 125 g/ha: 125 g ai/ha, 0 to 100 scale (0 no effect, 100 complete control), read-out: Plant response rating, Ryegrass, Italian
Method in brief: (§1)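 Visual injury, scored on a 0–100 scale relative to untreated controls, was recorded about 10 d after application. Treatments were a preemergence soil spray over planted seeds or a postemergence spray on plants at the one- to two-leaf stage, 2 to 10 cm tall, all in loam soil–sand blend in the greenhouse.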

[2] = test system: pigweed (Amaranthus retroflexus); test: Test A preemergence; conditions: Amaranthus retroflexus, pre-emergence, 240 h, Preemergence; for pest or weed control at 31 g/ha: 31 g ai/ha, 0 to 100 scale where 0 is no effect and 100 is complete control, read-out: Pigweed plant response rating; for pest or weed control at 125 g/ha: 125 g ai/ha, 0 to 100 scale (0 no effect, 100 complete control), read-out: Plant response rating, Pigweed
[3] = test system: Kochia (Kochia scoparia); test: Test A preemergence; conditions: Bassia scoparia, pre-emergence, 240 h, Preemergence; for pest or weed control at 31 g/ha: 31 g ai/ha, 0 to 100 scale where 0 is no effect and 100 is complete control, read-out: Kochia plant response rating; for pest or weed control at 125 g/ha: 125 g ai/ha, 0 to 100 scale (0 no effect, 100 complete control), read-out: Plant response rating, Kochia
Method in brief: as §1

[4] = test system: barnyardgrass (Echinochloa crus-galli); test: Test A preemergence; conditions: Echinochloa crus-galli, pre-emergence, 240 h, Preemergence; for pest or weed control at 31 g/ha: 31 g ai/ha, 0 to 100 scale where 0 is no effect and 100 is complete control, read-out: Barnyardgrass plant response rating; for pest or weed control at 125 g/ha: 125 g ai/ha, 0 to 100 scale (0 no effect, 100 complete control), read-out: Plant response rating, Barnyardgrass
Method in brief: as §1

[5] = test system: ragweed (common ragweed, Ambrosia elatior); test: Test A preemergence; conditions: Ambrosia artemisiifolia, pre-emergence, 240 h, Preemergence; for pest or weed control at 31 g/ha: 31 g ai/ha, 0 to 100 scale where 0 is no effect and 100 is complete control, read-out: Ragweed plant response rating; for pest or weed control at 125 g/ha: 125 g ai/ha, 0 to 100 scale (0 no effect, 100 complete control), read-out: Plant response rating, Ragweed
Method in brief: as §1

[6] = test system: ryegrass, Italian (Italian ryegrass, Lolium multiflorum); test: Test A postemergence; conditions: Lolium multiflorum, post-emergence, 240 h, Postemergence, read-out: Ryegrass, Italian plant response rating (0 to 100 scale); for pest or weed control at 125 g/ha: 125 g ai/ha, visual rating about 10 d after treatment; for pest or weed control at 31 g/ha: 31 g ai/ha, 0 is no effect, 100 is complete control
Method in brief: as §1

[7] = test system: pigweed (Amaranthus retroflexus); test: Test A postemergence; conditions: Amaranthus retroflexus, post-emergence, 240 h, Postemergence, read-out: Pigweed plant response rating (0 to 100 scale); for pest or weed control at 125 g/ha: 125 g ai/ha, visual rating about 10 d after treatment; for pest or weed control at 31 g/ha: 31 g ai/ha, 0 is no effect, 100 is complete control
Method in brief: as §1

[8] = test system: Kochia (Kochia scoparia); test: Test A postemergence; conditions: Bassia scoparia, post-emergence, 240 h, Postemergence, read-out: Kochia plant response rating (0 to 100 scale); for pest or weed control at 125 g/ha: 125 g ai/ha, visual rating about 10 d after treatment; for pest or weed control at 31 g/ha: 31 g ai/ha, 0 is no effect, 100 is complete control
Method in brief: as §1

[9] = test system: Galium (catchweed bedstraw, Galium aparine); test: Test A postemergence; conditions: Galium, post-emergence, 240 h, Postemergence, read-out: Galium plant response rating (0 to 100 scale); for pest or weed control at 125 g/ha: 125 g ai/ha, visual rating about 10 d after treatment; for pest or weed control at 31 g/ha: 31 g ai/ha, 0 is no effect, 100 is complete control
Method in brief: as §1

[10] = test system: barnyardgrass (Echinochloa crus-galli); test: Test A postemergence; conditions: Echinochloa crus-galli, post-emergence, 240 h, Postemergence; for pest or weed control at 125 g/ha: 125 g ai/ha, visual rating about 10 d after treatment, read-out: Barnyardgrass plant response rating (0 to 100 scale, 0 no effect, 100 complete control); for pest or weed control at 31 g/ha: 31 g ai/ha, 0 is no effect, 100 is complete control, read-out: Barnyardgrass plant response rating (0 to 100 scale)
Method in brief: as §1

[11] = test system: ragweed (common ragweed, Ambrosia elatior); test: Test A postemergence; conditions: Ambrosia artemisiifolia, post-emergence, 240 h, Postemergence, read-out: Ragweed plant response rating (0 to 100 scale); for pest or weed control at 125 g/ha: 125 g ai/ha, visual rating about 10 d after treatment; for pest or weed control at 31 g/ha: 31 g ai/ha, 0 is no effect, 100 is complete control
Method in brief: as §1

[12] = test system: giant foxtail (Setaria faberii); test: Test A postemergence; conditions: Setaria faberi, post-emergence, 240 h, Postemergence, read-out: Foxtail, Giant plant response rating (0 to 100 scale); for pest or weed control at 125 g/ha: 125 g ai/ha, visual rating about 10 d after treatment; for pest or weed control at 31 g/ha: 31 g ai/ha, 0 is no effect, 100 is complete control
Method in brief: as §1

[13] = test system: wheat (Triticum aestivum); test: Test A postemergence; conditions: Triticum aestivum, post-emergence, 240 h, Postemergence, read-out: Wheat plant response rating (0 to 100 scale); for plant injury at 125 g/ha: 125 g ai/ha, visual rating about 10 d after treatment; for plant injury at 31 g/ha: 31 g ai/ha, 0 is no effect, 100 is complete control
Method in brief: as §1

[14] = test system: corn (Zea mays); test: Test A postemergence; conditions: Zea mays, post-emergence, 240 h, Postemergence, read-out: Corn plant response rating (0 to 100 scale); for plant injury at 125 g/ha: 125 g ai/ha, visual rating about 10 d after treatment; for plant injury at 31 g/ha: 31 g ai/ha, 0 is no effect, 100 is complete control
Method in brief: as §1

[15] = test system: blackgrass (Alopecurus myosuroides); test: Test A postemergence; conditions: Alopecurus myosuroides, post-emergence, 240 h, Postemergence, read-out: Blackgrass plant response rating (0 to 100 scale); for pest or weed control at 125 g/ha: 125 g ai/ha, visual rating about 10 d after treatment; for pest or weed control at 31 g/ha: 31 g ai/ha, 0 is no effect, 100 is complete control
Method in brief: as §1

Row | Compound | pest or weed control at 31 g/ha [1] [%] | pest or weed control at 125 g/ha [1] [%] | pest or weed control at 31 g/ha [2] [%] | pest or weed control at 125 g/ha [2] [%] | pest or weed control at 31 g/ha [3] [%] | pest or weed control at 125 g/ha [3] [%] | pest or weed control at 31 g/ha [4] [%] | pest or weed control at 125 g/ha [4] [%] | pest or weed control at 31 g/ha [5] [%] | pest or weed control at 125 g/ha [5] [%] | pest or weed control at 125 g/ha [6] [%] | pest or weed control at 31 g/ha [6] [%] | pest or weed control at 125 g/ha [7] [%] | pest or weed control at 31 g/ha [7] [%] | pest or weed control at 125 g/ha [8] [%] | pest or weed control at 31 g/ha [8] [%] | pest or weed control at 125 g/ha [9] [%] | pest or weed control at 31 g/ha [9] [%] | pest or weed control at 125 g/ha [10] [%] | pest or weed control at 31 g/ha [10] [%] | other results
1 | CN1C[C@H](c2csc3c2CCC(F)(F)C3)[C@@H](C(=O)Nc2ccc(F)c(F)c2F)C1=O (racemic) [Compound 1368] | 0 | 0 | 0 | 0 | 0 | 0 | 0 | 100 | 0 | 0 | 40 | 20 | 0 | 0 | 20 | 0 | 30 | 0 | 50 | 20 | pest or weed control at 125 g/ha [11]: 0%; pest or weed control at 31 g/ha [11]: 0%; pest or weed control at 125 g/ha [12]: 40%; pest or weed control at 31 g/ha [12]: 0%; plant injury at 125 g/ha [13]: 0%; plant injury at 31 g/ha [13]: 0%; plant injury at 125 g/ha [14]: 0%; plant injury at 31 g/ha [14]: 0%; pest or weed control at 125 g/ha [15]: 30%; pest or weed control at 31 g/ha [15]: 0%
2 | CN1C[C@H](c2csc3c2CCC(F)(F)C3)[C@@H](C(=O)Nc2cccc(F)c2F)C1=O (racemic) [Compound 1369] | 0 | 0 | 0 | 0 | 0 | 0 | 0 | 100 | 50 | 70 | 30 | 0 | 20 | 20 | 20 | 0 | 30 | 0 | 60 | 20 | pest or weed control at 125 g/ha [11]: 20%; pest or weed control at 31 g/ha [11]: 0%; pest or weed control at 125 g/ha [12]: 50%; pest or weed control at 31 g/ha [12]: 20%; plant injury at 125 g/ha [13]: 0%; plant injury at 31 g/ha [13]: 0%; plant injury at 125 g/ha [14]: 0%; plant injury at 31 g/ha [14]: 0%; pest or weed control at 125 g/ha [15]: 20%; pest or weed control at 31 g/ha [15]: 0%
